Active and inactive are the calls of the source. No cut-off for these calls is given here.
Tests used:
Mus musculus [1] = experiment: Compound was evaluated for the neuro toxicity up to 4 hours after doses of <=300 mg/kg administered intraperitoneally; No toxicity; type: organism-based; details: in vivo, ip
Mus musculus [2] = experiment: Compound was evaluated for the dose required for protection against scMET-induced seizures after 4 hours of intraperitoneal administration at the doses< = 0.77-0.90 mM/kg; Inactive; type: functional, organism-based
Mus musculus [3] = experiment: Compound was evaluated for the dose required for protection against MES-induced seizures after 4 hours of intraperitoneal administration; type: functional

O=C1NC(=O)C(c2ccccc2)(c2cccc(C(F)(F)F)c2)N1 (stereo not drawn)
Neurotoxicity (Mus musculus [1]): No toxicity
Activity (Mus musculus [2]): inactive
Activity (Mus musculus [3]): 0.31 mmol/kg
